Experimental data published in a melting point compilation (Tetko et al.; mined from patent text by program, amines drawn as free bases though some values may be those of a salt).

| melting point [°C] | Structure (SMILES) |
| --- | --- |
| 106 to 108 | O=C(OCc1ccccc1)[C@H](CCCCO)N1C(=O)c2ccccc2C1=O |
| 86 to 89 | Cc1noc(NS(=O)(=O)c2ccsc2-c2ccccc2)c1Br |
| 107 to 108 | COC(=O)c1cn(-c2c(Cl)cc(Cl)cc2Cl)nc1C(F)(F)F |
| 295 to 303 | O=c1[nH]c(-c2ccccc2)c(F)c(=O)n1-c1ccc(OC(F)(F)F)cc1 |
| 90 to 92 | CCc1n[nH]c(CC)c1CCOCCOc1ccc(OC)cc1Cl |
| 111 to 113 | O=C1CC2(c3ccccc3)CCCC=C2C(=O)N1CC1CCCCC1 (centres undefined) |
| 100 to 105 | CC(C)(C)OC(=O)N1CCNC[C@H]1C(c1ccccc1)c1ccccc1 |
| 123 to 124 | CCOC(=O)c1cnc(-c2ccccc2OC(C)C)[nH]c1=O |
| 235 to 237 | CCOCc1nc2c(N)nc3ccccc3c2n1CC1CC(c2ccccc2)=NO1 (centres undefined) |
| 243 to 244 | COc1cc2ccccc2cc1-c1nc(N)nc(N)n1 |
| 188 to 190 | Cc1c(C(=O)O)cnn1CC(F)(F)F |
| 196 to 200 | NC(=O)CN1C(=O)[C@@H](N)[C@H](c2ccccc2)Sc2ccccc21 (relative stereo) |
| 221 to 224 | CCCc1[nH]c2ccc(OC)cc2c1/C=C/C(=O)c1ccncc1 |
| 192 to 194 | CC(=O)Nc1cnc2ccsc2c1 |
| 211 to 212 | CCOC(=O)C1=C(C)NC2=C(C(=O)OC2)C1c1ccccc1Cl (centres undefined) |
| 90 to 91 | O=[N+]([O-])c1ccc(Oc2ncc(C(F)(F)F)cc2Cl)cc1 |
| > 260 | O=C(O)c1ccc(-c2ccc(Cl)s2)nc1 |
| 157 to 160 | COc1ccc(C2CNC(=O)O2)cc1O (centres undefined) |
| 106 | CCOC(=O)C1=C(C)NC(N)=C(C(=O)OC(C)C)C1c1ccccc1C(F)(F)F (centres undefined) |
| 103 to 110 | CCCOc1c(OCc2ccccc2)cc(C2CCC(c3cc(OC)c(OC)c(OC)c3)O2)cc1S(=O)(=O)CC(C)O (centres undefined) |
| 191 to 192 | COC1=CCc2cccc(NC(C)=O)c2C1 |
| 242 to 245 | CN(C)c1ccc(-c2cc(=O)c3ccc(O)c(O)c3o2)cc1 |
| 172 to 175 | N=C(N)Nc1nc(CSCCNc2c(NCc3ccncc3)c(=O)c2=O)cs1 |
| 170 to 173 | Cc1ccccc1Oc1cccc(C(N)C(=O)O)c1O (centres undefined) |

| melting point [°C] | Structure (SMILES) |
| --- | --- |
| 145 to 146 | CCCCC1(CC)CSC2=CC=CC3=CNCC32C(c2ccccc2)=N1 (centres undefined) |
| 166 to 168 | CCCCCCn1c(=O)[nH]c2ncccc2c1=O |
| 80 to 81 | CC[C@H](C)[C@H](N)C(=O)N(CC(C)C)C(=O)[C@@H]1CCCN1CC(=O)[C@H](Cc1ccccc1)NC(=O)OCc1ccccc1 |
| 76 to 78 | Cc1cccc(OCC(=O)N[C@@H](Cc2ccccc2)C(=O)CSCc2ccco2)c1 |
| 204 to 208 | CCS(=O)(=O)Nc1ccc(C(=O)CN2CCN(c3ccncc3)CC2)cc1 |
| 60 to 64 | CCCCCCCCCCCCC(C)N(c1ccccc1)P(=O)(O)O (centres undefined) |
| 216 to 219 | Cc1nc(-c2ccc([N+](=O)[O-])cc2)c[nH]1 |
| 209 to 215 | CC1CC(=O)NN=C1c1ccc2c(c1)NCC(c1ccccc1)N2 (centres undefined) |
| 273 to 274 | COc1c2nc(CCl)n(C)c(=O)c2c(OC)c2nc(CCl)n(C)c(=O)c12 |
| 102 | CCOC(=O)c1cc(CC)sc1Nc1ccc(C(F)(F)F)cc1[N+](=O)[O-] |
| 164 to 165 | CCOC(=O)c1cc2cccc(N(C)S(=O)(=O)c3cccs3)c2[nH]1 |
| 248 to 253 | Nc1ccc([N+](=O)[O-])cc1S(=O)(=O)CCc1ccc(S(=O)(=O)O)cc1 |
| 281 to 283 | CN1C2=C(CSC2)C(=O)Nc2cc(Cl)c(Cl)cc21 |
| 183 | O=C(C[C@H]1CCCO1)N[C@H]1CC[C@H](CCN2CCN(c3nccc4c3CCO4)CC2)CC1 |
| 222 to 224 | CC(=O)Nc1cccc(C=CC(=O)C2C(=O)OC(=O)C(C(C)=O)=C2O)c1 (centres undefined) |
| 195 to 197 | O=c1nc(-c2cccc(-c3ccccc3)n2)sc2ccccc12 |
| 80 | CC(C)(C)OC(=O)C(Nc1ccccc1)C(=O)N1CCCC1 (racemic) |
| 172 to 174 | CC(=O)NC[C@H]1OC(=O)N2c3ccc(C(=O)CCl)cc3C[C@H]12 |
| 150 to 151 | CC(C)(C)c1nc(C=Cc2cccnc2)nc(C(C)(C)C)c1O |
| 234 | CCOC(=O)c1cn(OC)c2nc3cc(N4CC(NC)C4)c(F)cc3cc2c1=O |
| 215 to 217 | Cc1c(N2CC(F)[C@](C)(N)C2)c(F)cc2c(=O)c(C(=O)O)cn([C@@H]3C[C@@H]3F)c12 (some centres undefined) |
| 165 to 167 | COc1ccc(Oc2ccc(/C=C/C(=O)O)cc2)cc1 |
| 145 to 148 | CC(=O)SCC(Cc1ccccc1)C(=O)Nc1ccc(C(=O)O)c(Cl)c1 (centres undefined) |
| 198 to 201 | COc1cc(Nc2c(C#N)cnc3cc(-c4ccc(CNCCS(=O)(=O)c5ccccc5)cc4)ccc23)c(Cl)cc1Cl |

| melting point [°C] | Structure (SMILES) |
| --- | --- |
| 171 to 174 | COc1ccc(C(=O)N[C@@H](Cc2ccc(OC(=O)c3ccc(OC)cc3)cc2)C(=O)O)cc1 |
| 94 to 100 | COc1cccc2c(CCC3CC(=O)CCC3=O)cccc12 (centres undefined) |
| 171 to 174 | CC1(C)CC(=O)c2c(-c3ccccn3)cn(-c3ccccn3)c2C1 |
| 124 to 126 | O=C(NN1CC=CCC1)Oc1ccccc1 |
| 159 | Cc1cc2c(N=C3SCC4Cc5sccc5CN34)cccc2cn1 (racemic) |
| 62 to 63 | O=C(c1ccc(Br)cc1)c1ccc(O)cc1F |
| 195 to 198 | O=C(OCN1C(=O)CN(CCN2CC(=O)N(COC(=O)c3ccc4c(c3)OCO4)C(=O)C2)CC1=O)c1ccc2c(c1)OCO2 |
| 168 to 170 | COc1ccccc1C(=O)Nc1ccc(N2CCCC2)cc1C(C)=O |
| 119 to 120 | Nc1ccc(C=C2c3ccccc3C=Cc3ccccc32)cc1 |
| 54 to 56 | O=S(=O)(NCCCCCCCCn1ccnc1)c1ccc(Cl)cc1 |
| 85 to 90 | O=C(O)C(CNC(=O)C1Cc2ccccc2N1S(=O)(=O)c1ccc(-c2cccc(C(F)(F)F)c2)cc1)Cc1ccccc1 (centres undefined) |
| 265 | Nc1nc(N2CCCC2)c2nc[nH]c2n1 |
| 136 to 137 | COC1=C(OC)C(=O)C(CCCCCCCCCC(=O)N[C@H](CCC(=O)O)C(N)=O)=C(C)C1=O |
| 215 to 217 | COCc1nc2c(N)nc3cc(CCC(=O)N4CCOCC4)ccc3c2n1CC(C)(C)O |
| 35 to 36 | COC(=O)Cc1ccc(O)c(Cl)c1 |
| 182 to 184 | CCC(=O)N1CCC(NC(=O)Nc2ccc(Cl)c(C(F)(F)F)c2)CC1 |
| 62 to 67 | COc1ccc(OCC2CN(C(C)CO)C(=O)O2)cc1 (centres undefined) |
| 240 | CCOC(=O)Cn1cc(C(=O)Nc2ccc(OCC(C)(C)C)c(C#N)c2)c(C)n1 |
| 218 to 220 | CCCCc1nn(-c2ccc([N+](=O)[O-])cc2C(F)(F)F)c(=O)n1Cc1ccc(-c2ccccc2S(N)(=O)=O)cc1 |
| 145 to 146 | COC(=O)c1ccc(OCCN2CCN(c3cc(Cl)nnc3Cl)CC2)nc1 |
| 107 to 109 | Cc1c(C)c2c(c3c1NCC3)CC(C)(C)O2 |
| 129 to 130 | CC(C)c1cc(C(=O)Nc2ccc(C(=O)O)c(O)c2)sc1C(C)C |
| 258 | Cc1cn(-c2cc(NC(=O)c3ccc(C)c(/C=C/n4cnc5c(N)ncnc54)c3)cc(C(F)(F)F)c2)cn1 |
| 116 to 118 | CCOC(=O)N1C=CC(c2c(-c3ccc(OC)cc3)nc3n2CCC3)C=C1 |

| melting point [°C] | Structure (SMILES) |
| --- | --- |
| 224 to 225 | O=C(O)Cc1ccc(NC(=O)Nc2ccccc2C(F)(F)F)cc1 |
| 124 | C=CCOc1ccccc1C=NNC(=N)N |
| 184 | CC(C)(N)c1ccc(-c2nc(Nc3ccc(CCn4ccnc4)cc3)ncc2C#N)cc1 |
| 191 to 192 | Cc1cc(-n2ccc(OCc3ccccc3)cc2=O)oc1C(=O)NCc1ccccc1 |
| 185 to 187 | COc1cnc(-c2cccn3nc(Nc4ccc(C5CCN(CC(=O)N(C)C)CC5)cc4)nc23)cn1 |
| 148 to 153 | CCCO[C@@H]1C[C@@H](C(=O)O)N(C(C)=O)C1 |
| 222 to 225 | COC(=O)CCc1cc(=O)n2nc(C)nc2[nH]1 |
| 168 to 170 | CCC(C)c1ccc2ccccc2c1C(=O)O (centres undefined) |
| 46 | CC1(C)CCC(C)(C#N)c2ccccc21 (centres undefined) |
| 70 to 71 | CCCCCCC(CCC(=O)O)CC(=O)O (centres undefined) |
| 162 to 163 | O=C(O)COc1c(Br)cc(C(=O)c2c(Cc3ccccc3)sc3ccccc23)cc1Br |
| 132 | Cc1ccnc(-c2cc(C)cc(C#N)n2)c1 |
| 58 to 59 | OCCCc1cnoc1-c1ccc(Cl)cc1 |
| 256 to 258 | CC(=NNC(N)=O)c1ccc(Nc2nccc(-c3cccnc3)n2)cc1 |
| 162 | CS(=O)(=O)C(=C1CN(C(c2ccccc2)c2ccccc2)C1)c1cccc(OC(F)(F)F)c1 |
| 195 to 198 | COc1cc2[nH]c(=O)c3c(c2cc1OC)CCN(CCC1CCCCC1)C3 |
| 234 to 236 | COc1ccc(COC(=O)C2=C3[C@H]4CCCC[C@H]4[C@@H]3S[C@@H]3[C@H](NC(=O)Cc4ccccc4)C(=O)N23)cc1 |
| 250 to 253 | Cc1c(Cc2ccccc2)c(=O)n(C)c2cc(OCc3nnn[nH]3)cc(OCc3nnn[nH]3)c12 |
| 193 to 195 | CCN(CC)c1ccc2cc([N+](=O)[O-])c(=O)oc2c1 |
| 233 to 235 | CC(C)c1ccc(-c2ccc(-c3cccc(C(=O)O)c3)s2)cc1 |
| 153 to 155 | CC(C)(C)c1cc(-c2csc(CN3CCSCC3)n2)cc(C(C)(C)C)c1O |
| 146 to 148 | CCCCOc1nc2cccc(C(=O)OC)c2n1Cc1ccc(-c2ccccc2-c2nnn[nH]2)cc1 |
| 217 to 222 | COc1cc2c3c(cccc3c1N1CCC(N)C1)C(=O)N(O)C2=O (centres undefined) |
| 75 to 79 | CC(C)(C)OC(=O)N1CCC[C@H](C(=O)c2ccccc2)C1 |

| Structure (SMILES) | melting point [°C] |
| --- | --- |
| CCCCCCCCCCCc1nnc2n1-c1sc(CC)cc1C(c1ccc(O)cc1)=NC2 | 164 to 166 |
| O=C(O)COc1ccc(CCc2ccc(N3CCNCC3)cc2)cc1 | > 250 |
| CC(C)NC(=O)c1c(NC(=O)c2cc(C(F)(F)F)nn2-c2ncccc2Cl)c(Br)cc2cn[nH]c12 | 189 to 190 |
